In patent US7378387B2, “Method of suppressing immune response by reducing intracellular content of glutathione in macrophages and monocytes” (Ajinomoto Co., Inc., priority 1997, dated 2008):
Counter-ions that a name gives are not always drawn.

Legend:
IL-12 [1] = experiment: IL-12 production from macrophages induced through administration (Example 9, Table 1); format: in vivo, DBA/2 mice; details: LPS 100 ng/ml, IFNγ 100 units/ml
Description: (§1) The amount of IL-12 was determined through bioassay using cells of human T cell strain 2D6 (J. Leukocyte Biology, vol. 61, p. 346, 1997).
(§2) 2D6 cells which had been incubated in an RPMI 1640 medium containing 500 pg/ml of recombinant human IL-12, 50 μM of 2-mercaptoethanol and 10% FCS (fetal calf serum) were moved to a tube, and centrifugally washed three times with the above-mentioned medium without IL-12 and cell density was adjusted to 1×10^5/ml. The cell suspension was added in an amount of 100 μl each to a 96-well flat bottom plate containing a sample serially diluted in advance with an RPMI 1640 medium containing 50 μM of 2-mercaptoethanol and 10% FCS in an amount of 100 μl each. Subsequently, the mixture was charged into a 5% […] incubator of 37° C., and incubated for 48 hours. For final 6 hours, ^3H-TdR was pulsed (a substance adjusted to 370 kBq/ml in an RPMI 1640 medium containing 50 μM of 2-mercaptoethanol and 10% FCS was added in an amount of 50 μl each). The cells a harvested, and the radioactivity was measured using a β counter (Matrix 96, supplied by Packard).
(§3) The increase in the amounts of oxidative macrophages can easily be determined visually from the fact that almost no reaction product with monochlorobimane is observed, namely, a gray or blue image is provided, and the increase in the amounts of reductive macrophages from the fact that a red or yellow image is provided respectively. […] Meanwhile, the same examination was conducted by harvesting peritoneal exudate cells after 20 hours of the administration of 2 mg of N-acetylcystine (NAC).
(§4) Thus, the peritoneal exudate adherent cells were incubated in the following manner, and the amounts of NO and IL-12 produced in the culture supernatant were measured. With respect to the amount of IL-6, the amount of IL-6 produced spontaneously in the absence of a stimulator was measured.
(§5) Cells: The peritoneal exudate adherent cells obtained by the stimulation, namely, the macrophages were added to a 96-well microplate in an amount of 1×10^5 cells/200 μl each.
(§6) Medium: Phenol red-free RPMI 1640: 200 μl/well
(§7) LPS: Lipopolysaccharide (made by Sigma Co.) (origin: E. coli) 100 ng/ml

NO [2] = experiment: NO production from macrophages induced through administration (Example 9, Table 1); format: in vivo, DBA/2 mice; details: LPS 100 ng/ml, IFNγ 100 units/ml
Description: (§8) A stimulator was added to 1×10^5 MΦ, and the incubation was conducted at 37° C. for 2 days in a CO2 incubator. After the completion of the centrifugation, the culture supernatant was collected.
(§9) One hundred microliters of a Griess-Romijn reagent (supplied by Waco Pure Chemical Industries, Ltd.) adjusted to a concentration of 50 mg/ml in distilled water were added to 100 μl of the culture supernatant, and the reaction was conducted at room temperature for 15 minutes. After the completion of reaction, an absorbance of 540 nm was measured. NaNO2 was used as a standard.
as §3, with “This was clarified by harvesting peritoneal exudate cells 20 hours after the completion of the administration, adhering the cells to the plastic surface, then reacting the cells with 10 μM of monochlorobimane at 37° C. for 30 minutes, and analyzing the reaction product with ACAS. The” for “The”
as §4, §5, §6, §7

IL-6 [3] = experiment: IL-6 production from macrophages induced through administration (Example 9, Table 1); format: in vivo, DBA/2 mice; parameters: concentration or dose not given beside the values; details: produced spontaneously in the absence of a stimulator
Description: (§10) A stimulator was added to 1×10^6 MΦ, and the incubation was conducted at 37° C. for 2 days in a CO2 incubator. After centrifugation, the culture supernatant was collected.
(§11) The amount of IL-6 was determined using IL-6 dependent mouse hybridoma MH60 cells (J. Eur. Immunol., vol. 18, p. 951, 1988). One hundred microliters of the culture supernatant were added to 100 μl of the MH60 cell suspension adjusted to 1×10^5 cells/ml in a 10% FCS-containing RPMI medium, and the mixed solution was incubated at 37° C. for 2 days in a CO2 incubator. Subsequently, 10 μl of MTT (supplied by Sigma Co.) solution adjusted to a concentration of 5 mg/ml in the same medium were added thereto, and the reaction was conducted at 37° C. for 5 hours. After the completion of the reaction, the centrifugation was conducted. The supernatant (160 μl) was removed, and 100 μl of a mixture of hydrochloric acid and propanol were added to the residue. The suspension was conducted using a pipetman to dissolve the cells. Immediately after the dissolution, an absorbance of 570 nm was measured with an immunometer (supplied by Bio-Rad).
as §3, with “This was clarified by harvesting peritoneal exudate cells 20 hours after the completion of the administration, adhering the cells to the plastic surface, then reacting the cells with 10 μM of monochlorobimane at 37° C. for 30 minutes, and analyzing the reaction product with ACAS. The” for “The”
as §4, §5, §6

[4] = test system: peritoneal exudate cells (macrophages); experiment: Induction of oxidative or reductive macrophages by administration, monochlorobimane/ACAS (Example 9); format: in vivo, DBA/2 mice; details: Day 1 and Day 2, cells harvested 20 hours later; 20 μg (NAC-OMe)2 or (NAC)2, 10 μg acetylgliotoxin, 2 mg NAC intraperitoneally; 40 μg dexamethasone subcutaneously
Description: as §3, with “This was clarified by harvesting peritoneal exudate cells 20 hours after the completion of the administration, adhering the cells to the plastic surface, then reacting the cells with 10 μM of monochlorobimane at 37° C. for 30 minutes, and analyzing the reaction product with ACAS. The” for “The”

IL-12 [5] = experiment: IL-12 production by MΦ induced by intraperitoneal injection of substances (Example 7); format: in vivo, mouse; details: MΦ induced by intraperitoneal injection of the substance; stimulation with LPS and IFNγ
Description: as §1, §2
It was examined whether there is a difference in the IL-12 production between LNT-induced MΦ and LPS-induced MΦ. […] Next, the same analysis was conducted using MΦ induced by intraperitoneally injecting substances for changing the GSH content in cells.

IL-12 [6] = experiment: Suppression of IL-12 production of reductive MΦ by DEM or IL-4 (Example 7); format: cell-based, mouse
Description: as §1, §2
As mentioned above, IL-12 was produced only in reductive MΦ having the high GSH content in cells. It was examined whether this production is suppressed by converting MΦ to oxidative MΦ. That is, it was analyzed whether the IL-12 production is suppressed by exposing lentinan-induced MΦ with DEM.
(§12) IL-4 is a cytokine which acts on MΦ suppressively. IL-4 is considered to have an opposite function to IL-12 in the Th1/Th2 balance as well. Accordingly, it was examined whether IL-4 acts suppressively on the IL-12 production by reductive MΦ.

IL-6 [7] = experiment: IL-6 production of MΦ pretreated with IL-4 (Example 7); format: cell-based, mouse
Description: as §10, §11
Further, MΦ of which the GSH content in cells was increased by the stimulation with GSH-OEt and MΦ of which the GSH content in cells was decreased by the stimulation of DEM were pretreated with IL-4, and IFNγ was exposed thereon to induce the IL-6 production. […]

[8] = test system: reductive glutathione in MΦ; experiment: Content of reductive glutathione in MΦ treated with IL-4, ACAS image analysis (Example 7); format: cell-based, mouse; details: image analysis by ACAS
Description: Three-hundred microliters of a cell suspension adjusted concentration of 3×10^5 cells/ml in an RPMI 1640 medium (phenol red-free) were charged into a chambered coverglass (#136439, supplied by Nunc), and incubated at 37° C. for 2 hours using a CO2 incubator. The culture solution was washed with the medium, and 300 μl of monochlorobimane (supplied by Molecular Plobe) adjusted to 10 μM in the same medium were added thereto. The mixture was charged into a CO2 incubator of 37° C., and the reaction was conducted for 30 minutes. The fluorescent intensity was measured with ACAS. In ACAS, a UV laser was used.
as §12

NO [9] = experiment: NO production of MΦ pretreated with IL-4 (Example 7); format: cell-based, mouse
Description: as §8, §9
Reductive MΦ increases the NO production by the IFNγ stimulation in comparison with oxidative MΦ, and rather suppresses the IL-6 production. IFNγ is known to be a cytokine produced from Th1 cells. […] Further, MΦ of which the GSH content in cells was increased by the stimulation with GSH-OEt and MΦ of which the GSH content in cells was decreased by the stimulation with DEM were pretreated with IL-4, and IFNγ thereafter and LPS stimulation was carried out to induce NO production.

## CC(=O)O[C@H]1C=CC=C2C[C@]34SS[C@](CO)(C(=O)N3[C@@H]21)N(C)C4=O [Acetylgliotoxin]
IL-12 [1]
  IL-12, amount produced relative to that of control group: 14%
NO [2]
  NO, amount produced relative to that of control group: 22%
IL-6 [3]
  IL-6, amount produced relative to that of control group: 450%
[4]
  type of macrophages induced (monochlorobimane, ACAS): Oxidative macrophages were induced

## CCOC(=O)/C=C\C(=O)OCC [DEM, diethyl maleate, reference compound]
IL-12 [5]
  IL-12 production: produced only in MΦ derived from GSH-OEt administered mice
IL-12 [6]; without DEM 828 pg/ml
  IL-12 production from lentinan-induced MΦ with the addition of DEM: 0 pg/mL

## C[C@@H]1C[C@H]2[C@@H]3CCC4=CC(=O)C=C[C@]4(C)[C@@]3(F)[C@@H](O)C[C@]2(C)[C@@]1(O)C(=O)CO [Dexamethasone, dexamethasone, reference compound]
IL-12 [1]
  IL-12, amount produced relative to that of control group: 5%
NO [2]
  NO, amount produced relative to that of control group: 45%
IL-6 [3]
  IL-6, amount produced relative to that of control group: 1020%

B1: IL-4: interleukin 4, a cytokine which acts on MΦ suppressively; typical Th2 cytokine (protein, UniProt P05112 25-153, looked up)
Interleukin-4: HKCDITLQEIIKTLNSLTEQKTLCTELTVTDIFAASKNTTEKETFCRAATVLRQFYSHHEKDTRCLGATAQQFHRHKQLIRFLKRLDRNLWGLAGLNSCPVKEANQSTLENFLERLKTIMREKYSKCSS
IL-6 [7]; IFNγ exposure, in comparison with IL-4-untreated MΦ
  IL-6 production of GSH-OEt-stimulated and DEM-stimulated MΦ pretreated with IL-4: increased
IL-6 [7]; resident MΦ, LPS-induced MΦ and LNT-induced MΦ
  IL-6 production with IFNγ after pretreatment with IL-4: markedly increased
[8]
  content of reductive glutathione in MΦ: markedly decreases
IL-12 [6]; without IL-4 490 pg/ml
  IL-12 production by GSH-OEt administered mouse MΦ after pretreatment with IL-4: 258 pg/mL
IL-12 [6]; without IL-4 1,580 pg/ml
  IL-12 production by LNT-induced MΦ after pretreatment with IL-4: 370 pg/mL
NO [9]; IFNγ and LPS stimulation, both subsets of MΦ
  NO production of GSH-OEt-stimulated and DEM-stimulated MΦ pretreated with IL-4: remarkably suppressed
NO [9]; IFNγ stimulation
  IFNγ NO production from MΦ pretreated with IL-4 in comparison with untreated MΦ: significantly suppressed
